Results taken from patent US11840521B2, “Modulators of Mas-related G-protein receptor X4 and related products and methods” (Escient Pharmaceuticals, Inc., priority 2019, dated 2023).

The compounds below were run against MRGPRX4 (Homo sapiens, UniProt Q96LA9) (assay: MRGPR X4 antagonist activity, IP-One Gq HTRF assay in stably transfected HEK cells (versus agonist bilirubin, deoxycholic acid, conjugated bilirubin, urobilin, obeticholic acid or BAR502)). Conditions: versus 10 μM Bilirubin agonist; HEK cells expressing human MRGPR X4; read-out: MRGPR4 Antagonist Activity.
MRGPRX4, sequence (Q96LA9 whole entry): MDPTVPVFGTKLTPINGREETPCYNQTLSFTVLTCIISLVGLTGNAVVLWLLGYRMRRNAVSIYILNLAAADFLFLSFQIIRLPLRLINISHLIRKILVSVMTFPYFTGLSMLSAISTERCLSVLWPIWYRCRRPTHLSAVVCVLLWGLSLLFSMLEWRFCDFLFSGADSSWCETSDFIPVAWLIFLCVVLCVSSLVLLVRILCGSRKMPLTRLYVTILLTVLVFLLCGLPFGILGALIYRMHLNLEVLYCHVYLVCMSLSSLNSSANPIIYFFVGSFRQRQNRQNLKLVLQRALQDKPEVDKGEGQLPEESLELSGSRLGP
Format: cell-based
Set-up: expressed in transfected cells; host or cells: HEK cells, stably transfected
Description: HEK cells stably transfected to express human MRGPR X4 were maintained in an incubator at 37° C. with 5% CO2 and grown in DMEM media with 10% fetal bovine serum (FBS) and 1% each of sodium pyruvate, Glutamax, penicillin/streptomycin, and Geneticin. HEK cells stably transfected to express mouse MRGPR A1 were maintained in the same incubator and grown in DMEM media with 10% FBS, 1% each of sodium pyruvate, Glutamax, penicillin/streptomycin, Geneticin, and 2.2 mg/mL Hygromycin.
Cells were plated in a 384-well assay plate at 20,000 cells per well in 12 μL of Opti-MEM and kept in an incubator overnight. On the day of the assay, compounds solubilized at 10 mM in DMSO were added as a 10-point curve (10 uM final top concentration with 1:3 serial dilutions) using a Tecan D300E digital dispenser. […] Final concentrations of DMSO were kept consistent across the plate. Plates were incubated in the dark for 1 h at 37° C. and then for 30 minutes at room temperature. IP-1 standards and HTRF detection reagents were added according to the IP-One—Gq Kit purchased from Cisbio (part number 62IPAPEJ) and incubated in the dark for 1 h at room temperature. The plate was read on a Molecular Devices SpectraMax iD5 plate reader. The HTRF ratio was calculated from the raw data and graphed using GraphPad Prism to calculate an IC50 value for each compound.

IC50 [nM] | SMILES
> 2500 | O=C(O)c1cccc(NC(=O)c2cccc(COc3ccc(C(F)(F)F)cc3Cl)c2)c1 [Compound 54-11]
100 to 500 | NC(=O)C[C@H](NC(=O)c1cccc(COc2ccc(C(F)(F)F)cc2Cl)c1)C(=O)O [Compound 55-1, (3-((2-chloro-4-(trifluoromethyl)phenoxy)methyl)benzoyl)-L-asparagine]
1000 to 2500 | OCc1cccc(COc2ccc(Cl)cc2Cl)c1 [Compound 14-1, (3-((2,4-dichlorophenoxy)methyl)phenyl)methanol]
500 to 1000 | O=C(N[C@@H](Cc1c[nH]cn1)C(=O)O)c1cccc(COc2ccc(C(F)(F)F)cc2Cl)c1 [Compound 55-2]
< 100 | Cc1cc(Cl)ccc1OCc1cccc(-c2nnn[nH]2)c1 [Compound 17-13]
100 to 500 | O=C(N[C@@H](Cc1ccc(O)cc1)C(=O)O)c1cccc(COc2ccc(C(F)(F)F)cc2Cl)c1 [Compound 54-7]
100 to 500 | FC(F)(F)c1cc(Cl)ccc1OCc1cccc(-c2nnn[nH]2)c1 [Compound 17-3]
< 100 | Fc1ccc(OCc2cccc(-c3nnn[nH]3)c2)c(Cl)c1 [Compound 17-7]
< 100 | Cc1cc(C(F)(F)F)ccc1OCc1cc(F)cc(C(=O)O)c1 [Compound 9-2]
< 100 | O=C(O)CNC(=O)c1cccc(COc2ccc(C(F)(F)F)cc2Cl)c1 [Compound 54-2]
100 to 500 | O=C(N[C@@H](CO)C(=O)O)c1cccc(COc2ccc(C(F)(F)F)cc2Cl)c1 [Compound 54-9]
100 to 500 | FC(F)(F)c1ccc(OCc2cccc(-c3ncc[nH]3)c2)c(Cl)c1 [Compound 46-1, 2-(3-((2-chloro-4-(trifluoromethyl)phenoxy)methyl)phenyl)-1H-imidazole]
500 to 1000 | C#Cc1cc(C(F)(F)F)ccc1OCc1cccc(C(=O)O)c1F [Compound 36-1, 3-((2-ethynyl-4-(trifluoromethyl)phenoxy)methyl)-2-fluorobenzoic acid]
< 100 | CCCc1cc(COc2ccc(C(F)(F)F)cc2Cl)nc(C(=O)O)c1 [Compound 39-1, 6-((2-chloro-4-(trifluoromethyl)phenoxy)methyl)-4-propylpicolinic acid]
< 100 | O=C(O)c1cc(C2CC2)cc(COc2ccc(C(F)(F)F)cc2Cl)n1 [Compound 8-3]
> 2500 | Cc1ccc(COc2ccc(Cl)cc2Cl)cc1C(=O)O [Compound 8-1, 5-((2,4-dichlorophenoxy)methyl)-2-methylbenzoic acid]
100 to 500 | N#Cc1cccc(COc2ccc(C(F)(F)F)cc2Cl)c1 [Compound 17-1, 3-((2-chloro-4-(trifluoromethyl)phenoxy)methyl)benzonitrile]
< 100 | FC(F)(F)c1ccc(OCc2cccc(-c3nnn[nH]3)n2)c(Cl)c1 [Compound 17-6]
100 to 500 | O=C(N[C@@H](Cc1c[nH]c2ccccc12)C(=O)O)c1cccc(COc2ccc(C(F)(F)F)cc2Cl)c1 [Compound 54-5]
1000 to 2500 | Cc1ccc(C(=O)O)cc1COc1ccc(Cl)cc1Cl [Compound 8-2]
1000 to 2500 | O=C(O)c1cccc(COc2ccc(C(F)(F)F)cn2)c1 [Compound 10-1, 3-(((5-(trifluoromethyl)pyridin-2-yl)oxy)methyl)benzoic acid]
500 to 1000 | O=C(c1cccc(COc2ccc(C(F)(F)F)cc2Cl)c1)N1CCCC(O)C1 (centres unmarked) [Compound 52-21]
500 to 1000 | O=C(NC1CCCC(O)C1)c1cccc(COc2ccc(C(F)(F)F)cc2Cl)c1 (centres unmarked) [Compound 52-19]
100 to 500 | CC(C)(NC(=O)c1cccc(COc2ccc(C(F)(F)F)cc2Cl)c1)C(=O)O [Compound 54-3]
< 100 | c1cc(COc2ccc3ccccc3c2)cc(-c2nnn[nH]2)c1 [Compound 17-5]
< 100 | N#Cc1cc(COc2ccc(OC(F)(F)F)cc2Cl)cc(C(=O)O)c1 [Compound 32-4]
< 100 | O=C(O)c1cccc(COc2ccc(C(F)F)cc2Cl)c1 [Compound 33-3]

The remaining lines, values behind:

SMILES | IC50 [nM]
N#Cc1ccc(OCc2cccc(C(=O)O)c2)c(C(F)(F)F)c1 [Compound 1-68] | 100 to 500
O=C(O)c1cccc(COc2cccc3c2OC(F)(F)O3)c1 [Compound 1-48] | > 2500
O=C(O)c1cccc(COc2ccc(Cl)c(Cl)c2Cl)c1F [Compound 1-124] | < 100
COC(=O)c1cncc(COc2ccc(Cl)cc2Cl)n1 [Compound 1-9] | 1000 to 2500
CCOc1ccc(OCc2cccc(C(=O)O)c2)cc1 [Compound 1-45] | 1000 to 2500
O=C(O)c1cccc(COc2ccc(OC(F)(F)F)c(Cl)c2)n1 [Compound 1-129] | < 100
O=C(O)c1cccc(COc2ccc(Cl)c(Cl)c2F)c1 [Compound 1-149] | < 100
O=C(O)c1ccc(F)c(COc2ccc(Cl)cc2Cl)c1 [Compound 4-2] | 1000 to 2500
O=C(O)c1cccc(COc2ccc(C3CC3)cc2Cl)c1 [Compound 1-122] | 100 to 500
O=C(O)c1nc(COc2ccc(C(F)(F)F)c(Cl)c2)ccc1F [Compound 4-19] | < 100
O=C(O)c1cccc(COc2ccccc2Cl)c1 [Compound 1-22] | > 2500
N#CCc1ccccc1OCc1cccc(C(=O)O)c1 [Compound 1-150] | > 2500
COc1cc(C(=O)O)ccc1OCc1ccc(Cl)cc1 [Compound 1-20] | 1000 to 2500
Cc1cc(OCc2cccc(C(=O)O)c2)ccc1OC(F)(F)F [Compound 1-139] | > 2500
Cc1c(COc2ccc(Cl)cc2Cl)cccc1C(=O)O [Compound 4-8] | 100 to 500
COC(=O)c1cccc(COc2ccc(Cl)cc2Cl)c1 [Compound 1-4] | > 2500
O=C(O)c1cccc(COc2ccc(-c3ccccc3)cc2)c1 [Compound 1-81] | > 2500
O=C(O)c1cccc(COc2ccc(C(F)(F)F)cc2F)c1 [Compound 1-64] | < 100
O=C(O)c1cccc(COc2ccccc2C(F)(F)F)c1 [Compound 1-141] | 1000 to 2500
O=C(O)c1cccc(COc2ccc3ccccc3c2)c1 [Compound 1-17] | 100 to 500
Cc1cc(C(F)(F)F)ccc1OCc1cccc(C(=O)O)c1 [Compound 1-16, 3-((2-methyl-4-(trifluoromethyl)phenoxy)methyl)benzoic acid] | < 100
CC(C)(C)c1ccccc1OCc1cccc(C(=O)O)c1 [Compound 1-144] | > 2500
O=C(O)c1cccc(COc2ccc(C3CC3)cc2)c1 [Compound 1-46] | 1000 to 2500
COc1ccc(OCc2cccc(C(=O)O)c2)c(Cl)c1 [Compound 1-92] | 1000 to 2500
O=C(O)c1cccc(COc2ccc(OC(F)(F)F)cc2Cl)n1 [Compound 1-125] | < 100

SMILES | IC50 [nM]
O=C(O)c1cccc(COc2ccc(OC(F)(F)F)cc2)c1 [Compound 1-47] | 100 to 500
Cc1ccc(OCc2cccc(C(=O)O)c2)c(Cl)c1Cl [Compound 1-143] | < 100
Cc1ccc(C(C)(C)C)c(OCc2cccc(C(=O)O)c2)c1 [Compound 1-88] | 1000 to 2500
O=C(O)c1cccc(COc2cccc(Cl)c2Cl)c1 [Compound 3-4] | 100 to 500
COC(=O)c1ccc(COc2ccc(Cl)cc2Cl)s1 [Compound 1-14] | 1000 to 2500
O=C(O)c1cc(Cl)cc(COc2ccc(C(F)(F)F)cc2Cl)c1 [Compound 1-82] | < 100
Cc1cc(C#N)ccc1OCc1cccc(C(=O)O)c1 [Compound 1-99] | 100 to 500
N#Cc1cc(Cl)c(F)cc1OCc1cccc(C(=O)O)c1 [Compound 1-153] | 100 to 500
O=C(O)c1cccc(COc2ccccc2F)c1 [Compound 1-40] | 1000 to 2500
O=C(O)c1cccc(COc2ccc(Oc3ccccc3)cc2)c1 [Compound 1-52] | > 2500
NCc1cccc(COc2ccc(Cl)cc2Cl)c1 [Compound 7-1, (3-((2,4-dichlorophenoxy)methyl)phenyl)methanamine] | 100 to 500
O=C(O)c1cccc(COc2ccc3ccccc3c2Cl)c1F [Compound 4-21] | < 100
O=C(O)c1cncc(COc2ccc(Cl)cc2Cl)n1 [Compound 1-116] | 500 to 1000
O=C(O)c1cccc(COc2ccc(Cl)cc2)c1 [Compound 1-21] | 100 to 500
COC(=O)c1cc(COc2ccc(Cl)cc2Cl)on1 [Compound 1-15] | 1000 to 2500
O=C(O)c1cc(COc2ccc(C(F)(F)F)cc2Cl)ccc1Cl [Compound 1-83] | 100 to 500
O=C(O)c1cccc(COc2ccc3c(c2)C(=O)CCC3)c1 [Compound 1-151] | > 2500
COc1c(COc2ccc(Cl)cc2Cl)cccc1C(=O)O [Compound 6-1, 3-((2,4-dichlorophenoxy)methyl)-2-methoxybenzoic acid] | 1000 to 2500
O=C(O)c1cccc(COc2ccc3ccoc3c2)c1 [Compound 1-128] | 500 to 1000
Cc1c(Cl)cccc1OCc1cccc(C(=O)O)c1 [Compound 1-95] | 100 to 500
O=C(O)c1cccc(COc2cccc3ccccc23)c1 [Compound 1-49] | 500 to 1000
O=C(O)c1cccc(COc2ccc(C(F)(F)F)cc2Br)c1 [Compound 1-120] | < 100
O=C(O)c1cccc(COc2cccc(C(F)(F)F)c2Cl)c1 [Compound 1-79] | 100 to 500
O=C(O)c1cccc(COc2c(Cl)cccc2Cl)c1 [Compound 1-25] | > 2500
Cc1ccc(OCc2cccc(C(=O)O)c2)cc1F [Compound 1-89] | 100 to 500
